Test results taken from patent US8961930B2, “Isatin derivatives for use as in vivo imaging agents” (Imperial Innovations Limited, priority 2008, dated 2015).

Columns and labels:
[1] = target: T1, caspase 3 (Homo sapiens, UniProt P42574); experiment: Fluorimetric in vitro caspase inhibition assay (7-AMC), caspase 3; format: biochemical; design: purchased Biomol International, UK; settings: for EC50: recombinant human caspase 3, 10 μM Ac-DEVD-AMC; for increase in potency as compared to known benzyl derivative 15: caspase 3, versus compound 15
T1 sequence (P42574 29-175 limits assumed): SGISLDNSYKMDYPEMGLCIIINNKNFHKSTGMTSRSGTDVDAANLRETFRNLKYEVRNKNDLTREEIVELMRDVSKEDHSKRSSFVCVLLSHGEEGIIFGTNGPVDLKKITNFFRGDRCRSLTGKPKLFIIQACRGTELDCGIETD
T1 sequence (P42574 176-277 limits assumed): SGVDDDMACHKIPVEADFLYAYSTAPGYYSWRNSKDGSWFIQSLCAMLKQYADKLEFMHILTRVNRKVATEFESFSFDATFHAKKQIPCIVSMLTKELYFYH
Method: Recombinant human caspases-1, -3, -6, -7, and -8 and their peptide-specific substrates were purchased from Biomol International, UK Inhibition of the recombinant caspases by non-radioactive isatins was assessed using a fluorometric assay that measures the accumulation of a fluorogenic product, 7-amino-4-methylcoumarin (7-AMC). All assays were performed in 96-well plates at a volume of 200 μl per well. The assays were performed at 37° C. in an appropriate reaction buffer as described below for each caspase. For caspase 1, the buffer comprised of 0.1% CHAPS, 100 mM NaCl, 5 mM 2-mercaptoethanol, 100 mM HEPES (pH 7.4), 2 mM EDTA, 10% sucrose, and 10 μM of the peptide substrate Ac-YVAD-AMC. For caspase 3: 20 mM HEPES (pH 7.4), 10% sucrose, 100 mM NaCl, 0.1% CHAPS, 2 m, mM EDTA, and 10 μM Ac-DEVD-AMC. For caspase 6: 20 mM HEPES (pH 7.4), 10% sucrose, 100 mM NaCl, 0.1% CHAPS, 2 mM EDTA, and 10 μM Ac-VEID-AMC. For caspase 7: 20 mM HEPES (pH 7.4), 10% sucrose, 5 mM 2-mercaptoethanol, 100 mM NaCl, 0.1% CHAPS, 2 mM EDTA, 10 μM Ac-DEVD-AMC. For caspase 8: 20 mM HEPES (pH 7.4), 10% sucrose, 100 mM NaCl, 0.1% CHAPS, 2 mM EDTA, and 10 μM Ac-IETD-AMC. The Buffers contained non-radioactive isatins in DMSO at a final concentration of 500, 50, 5 μM; 500, 50, 5 nM; 500, 50, 5 pM; the final concentration of DMSO in all wells was 5% of the total volume. Recombinant caspases were used at 0.5 units per assay (˜500 pmol substrate converted per h). All reagents except the peptide substrate were pre-incubated for 10 min. The peptide substrate (final concentration 10 μM) was then added and the plate was incubated for a further 30 min; 30 min was selected after initial linearity study where reaction was assessed after 10, 30, 60 or 90 min. The 30 min time point was selected. Respective control wells contained all reaction components without enzyme. The amount of 7-AMC produced was measured on a fluorescence microplate reader (Victor2; Perkin-Elmer Life sciences) at excitation and emission wavelengths of 355 nm and 460 nm, respectively. The concentration of isatin that inhibits the caspase activity by 50% (EC50) was estimated by non-linear regression analysis using GraphPad Prism (Version 4.0 for Windows, GraphPad Software, San Diego Calif. USA). All the isatins were analyzed in duplicate; the assays were repeated once.
The data are the average for two runs, each of which was duplicated, at nine concentrations ranging from 5 pM to 500 μM; the drug concentration required to inhibit each enzyme by 50% (EC50) was obtained from nonlinear regression analysis of the inhibition profiles.

[2] = In vitro mouse liver S9 metabolism studies; format: in vitro ADME; settings: 60 min incubation, 37° C., HPLC
Method: Liver S9 metabolism studies were performed as described in Aboagye et al^19. Mouse livers were rapidly excised and kept at 4° C. throughout the experiment. Tissues were weighed and homogenized in an equivalent volume of 50 mM Tris-150 mM KCl-HCl buffer (pH 7.4) using an Ultra-Thurrax homogenizer (IKA, Staufen, Germany). To obtain the S9 fraction, the homogenate was centrifuged (10,000×g) for 30 min to remove nuclei, mitochondria and cell debris. Protein concentration of the S9 fraction was determined by a commercial BCA protein assay kit (Perbio Science, Cheshire, UK). S9 fractions were stored at −80° C. for up to 6 weeks. […]
Immediately prior to extraction the samples were thawed and placed on ice. For extraction, ice cold acetonitrile (1.5 mL) was added to plasma (0.2 mL); S9 incubation samples (3 mL) containing acetonitrile were also analysed. […] The samples (1 mL) were then analyzed by radio-HPLC on an Agilent 1100 series HPLC system (Agilent Technologies, Stockport, UK) equipped with a γ-RAM Model 3 gamma-detector and the Laura software (IN/US Systems inc., Florida, USA).
The stationary phase comprised of a Waters μBondapak C18 reverse-phase column (300×7.8 mm). For analysis of [^125I]14, plasma and liver samples were processed as above and analyzed by using a mobile phase comprising of water (0.1% TFA)/propan-1-ol (0.1% TFA) (35:65) running in isocratic mode at a flowrate of 2 mL/min. […]

Structure (SMILES) | EC50 [1] | also measured
O=C1C(=O)N(Cc2ccc(F)cc2)c2ccc(S(=O)(=O)N3CCC[C@H]3COc3cccc(F)c3)cc21 [Compound 1, (S)-1-(4-Fluorobenzyl)-5-(2-(3-fluorophenoxymethyl)-pyrrolidine-1-sulfonyl)isatin] | 17 nM | increase of affinity for caspase 3 as compared with compound 14 ([1]; versus known compound 14): two- to three-fold
O=C1C(=O)N(Cc2ccc(F)cc2)c2ccc(S(=O)(=O)N3CCC[C@H]3COc3ccc(F)cc3F)cc21 [Compound 2, (S)-1-(4-Fluorobenzyl)-5-(2-(2,4-difluorophenoxymethyl)-pyrrolidine-1-sulfonyl)isatin] | 12.4 nM | –
O=C1C(=O)N(Cc2ccc(F)cc2)c2ccc(S(=O)(=O)N3CCC[C@H]3COC3CCOCC3)cc21 [Compound 4, (S)-1-(4-Fluorobenzyl)-5-(2-(tetrahydro-2H-pyran-4-yloxymethyl)-pyrrolidine-1-sulfonyl)isatin] | 10.7 nM | increase in potency as compared to known benzyl derivative 15 [1]: five-fold
O=C1C(=O)N(Cc2ccc(F)cc2)c2ccc(S(=O)(=O)N3CCC[C@H]3COc3ccncn3)cc21 [Compound 5, (S)-1-(4-Fluorobenzyl)-5-(2-(pyrimidin-4-yloxymethyl)-pyrrolidine-1-sulfonyl)isatin] | 5.5 nM | –
O=C1C(=O)N(Cc2cn(CCF)nn2)c2ccc(S(=O)(=O)N3CCC[C@H]3COc3ccccc3)cc21 [Compound 10, (S)-1-((1-(2-Fluoroethyl)-1H-[1,2,3]-triazol-4-yl)methyl)-5-(2-phenoxymethyl-pyrrolidine-1-sulfonyl)isatin] | 16.7 nM | increase in potency as compared to known benzyl derivative 15 [1]: 4 fold
O=C1C(=O)N(Cc2cn(CCF)nn2)c2ccc(S(=O)(=O)N3CCC[C@H]3COc3ccc(F)cc3F)cc21 [Compound 11, (S)-1-((1-(2-Fluoroethyl)-1H-[1,2,3]-triazol-4-yl)methyl)-5-(2(2,4-difluorophenoxymethyl)-pyrrolidine-1-sulfonyl)isatin] | 0.5 nM | –
O=C1C(=O)N(Cc2ccccc2)c2ccc(S(=O)(=O)N3CCC[C@H]3COc3ccccc3)cc21 [Compound 13, (S)-1-benzyl-5-(2-phenoxymethyl-pyrrolidine-1-sulfonyl)isatin, reference compound] | 41.8 nM | –
O=C1C(=O)N(Cc2ccc(I)cc2)c2ccc(S(=O)(=O)N3CCC[C@H]3COc3ccccc3)cc21 [Compound 14, (S)-1-(4-iodobenzyl)-5-(2-phenoxymethyl-pyrrolidine-1-sulfonyl)isatin, reference compound] | – | degradation in mouse liver S9 fraction [2]: near complete degradation
O=C1C(=O)N(Cc2ccc(F)cc2)c2ccc(S(=O)(=O)N3CCC[C@H]3COc3ccccc3)cc21 [Compound 15, (S)-1-(4-fluorobenzyl)-5-(2-phenoxymethyl-pyrrolidine-1-sulfonyl)isatin, reference compound] | 50.5 nM | degradation in mouse liver S9 fraction [2]: near complete degradation
O=C1C(=O)N(Cc2ccc(F)cc2)c2ccc(S(=O)(=O)N3CCCC3)cc21 [Compound 16, 1-(4-Fluorobenzyl)-5-(pyrrolidine-1-sulfonyl)isatin, reference compound] | 200 nM | –
O=C1C(=O)N(Cc2ccc(F)cc2)c2ccc(S(=O)(=O)N3CCC[C@H]3COc3ccc(F)cc3)cc21 [Compound 22, (S)-1-(4-Fluorobenzyl)-5-(2-(4-fluorophenoxymethyl)-pyrrolidine-1-sulfonyl)isatin] | 26.1 nM | –
C#CCN1C(=O)C(=O)c2cc(S(=O)(=O)N3CCC[C@H]3COc3ccc(F)cc3F)ccc21 [Compound 25, (S)-1-(2-Propynyl)-5-(2-(2,4-difluorophenoxymethyl)-pyrrolidine-1-sulfonyl)isatin] | 50.1 nM | –
